Patent US20220289794A1, “SYNTHETIC ANTIMICROBIAL PEPTIDES” (priority 2019, published 2022)
Converted amounts (≈) assume the structure as drawn. Non-standard residues stand in square brackets, D forms with d. Residues, ends and D or L forms follow the SMILES beside them. Dip = N[C@H](C(=O)O)C(c1ccccc1)c1ccccc1; 2Nal = N[C@@H](Cc1ccc2ccccc2c1)C(=O)O; d2Nal = N[C@H](Cc1ccc2ccccc2c1)C(=O)O; Dab = NCC[C@H](N)C(=O)O

How the values were obtained:
[1] = system: human red blood cells; design: unit not given beside the values
[2] = system: Escherichia coli (ATCC 25922); details: ATCC 25922
[3] = system: Pseudomonas aeruginosa (ATCC 27883); details: ATCC 27883
[4] = system: S. aureus ATCC 29213; details: ATCC 29213
[5] = system: Methicillin-resistant Staphylococcus aureus MRSA (ATCC BAA-1556); details: ATCC BAA-1556

SMILES | HC50 [1] | MIC E. coli ATCC 25922 [2] | MIC P. aeruginosa ATCC 27883 [3] | MIC S. aureus ATCC 29213 [4] | MIC MRSA ATCC BAA-1556 [5]
N=C(N)NCCC[C@H](NC(=O)[C@@H](NC(=O)[C@@H](NC(=O)[C@H](CCCNC(=N)N)NC(=O)[C@H](CCCNC(=N)N)NC(=O)[C@@H](NC(=O)[C@@H](N)CCCNC(=N)N)C(c1ccccc1)c1ccccc1)C(c1ccccc1)c1ccccc1)C(c1ccccc1)c1ccccc1)C(=O)O [IFX-016-1, NH2-Arg-Dip-Arg-Arg-Dip-Dip-Arg-OH] (H-R[Dip]RR[Dip][Dip]R-OH) | 320 | 25 µg/mL (≈ 19 µM) | >100 µg/mL | 12.5 µg/mL (≈ 9.52 µM) | 25 µg/mL (≈ 19 µM)
NCCCC[C@@H]1NC(=O)[C@H](CCCCN)NC(=O)[C@H](CCCCN)NC(=O)[C@H](C(c2ccccc2)c2ccccc2)NC(=O)[C@H](C(c2ccccc2)c2ccccc2)NC(=O)[C@H](C(c2ccccc2)c2ccccc2)NC(=O)[C@H](CCCCN)NC(=O)[C@H](CCCCN)NC1=O [IFX-015, c[Lys-Lys-Lys-Lys-Lys-Dip-Dip-Dip]] (cyclo([Dip][Dip][Dip]KKKKK)) | 480 | 50 µg/mL (≈ 38.1 µM) | >100 µg/mL | 6.2 µg/mL (≈ 4.73 µM) | 12.5 µg/mL (≈ 9.54 µM)
N=C(N)NCCC[C@H](NC(=O)[C@H](CCCNC(=N)N)NC(=O)[C@H](CCCNC(=N)N)NC(=O)[C@@H](N)CCCNC(=N)N)C(=O)N[C@@H](Cc1ccc2ccccc2c1)C(=O)N[C@@H](Cc1ccc2ccccc2c1)C(=O)O [IFX-011-1, NH2-Arg-Arg-Arg-Arg-NaI-NaI-OH] (H-RRRR[2Nal][2Nal]-OH) | 310 | 50 µg/mL (≈ 48.2 µM) | >100 µg/mL | 6.2 µg/mL (≈ 5.98 µM) | 6.2 µg/mL (≈ 5.98 µM)
N=C(N)NCCC[C@H](NC(=O)[C@H](CCCNC(=N)N)NC(=O)[C@@H](N)CCCNC(=N)N)C(=O)N[C@@H](CCCNC(=N)N)C(=O)N[C@H](C(=O)N[C@H](C(=O)N[C@H](C(=O)N[C@H](C(=O)O)C(c1ccccc1)c1ccccc1)C(c1ccccc1)c1ccccc1)C(c1ccccc1)c1ccccc1)C(c1ccccc1)c1ccccc1 [IFX-005-1, NH2-Arg-Arg-Arg-Arg-Dip-Dip-Dip-Dip-OH] (H-RRRR[Dip][Dip][Dip][Dip]-OH) | 135 | 50 µg/mL (≈ 32.6 µM) | 50 µg/mL (≈ 32.6 µM) | 6.2 µg/mL (≈ 4.04 µM) | 6.2 µg/mL (≈ 4.04 µM)
N=C(N)NCCC[C@@H]1NC(=O)[C@H](CCCNC(=N)N)NC(=O)[C@H](CCCNC(=N)N)NC(=O)[C@H](C(c2ccccc2)c2ccccc2)NC(=O)[C@H](C(c2ccccc2)c2ccccc2)NC(=O)[C@H](C(c2ccccc2)c2ccccc2)NC(=O)[C@H](CCCNC(=N)N)NC(=O)[C@H](CCCNC(=N)N)NC1=O [IFX-012, c[Arg-Arg-Arg-Arg-Arg-Dip-Dip-Dip]] (cyclo([Dip][Dip][Dip]RRRRR)) | 195 | 25 µg/mL (≈ 17.2 µM) | 25 µg/mL (≈ 17.2 µM) | 6.2 µg/mL (≈ 4.27 µM) | 6.2 µg/mL (≈ 4.27 µM)
N=C(N)NCCC[C@H](NC(=O)[C@H](CCCNC(=N)N)NC(=O)[C@@H](N)CCCNC(=N)N)C(=O)N[C@@H](Cc1c[nH]c2ccccc12)C(=O)N[C@H](C(=O)N[C@H](C(=O)O)C(c1ccccc1)c1ccccc1)C(c1ccccc1)c1ccccc1 [IFX-020-1, NH2-R-R-R-Trp-Dip-Dip-OH] (H-RRRW[Dip][Dip]-OH) | 310 | 6.2 µg/mL (≈ 5.54 µM) | 25 µg/mL (≈ 22.3 µM) | 6.2 µg/mL (≈ 5.54 µM) | 6.2 µg/mL (≈ 5.54 µM)
N=C(N)NCCC[C@H](NC(=O)[C@H](CCCNC(=N)N)NC(=O)[C@@H](N)CCCNC(=N)N)C(=O)N[C@@H](Cc1ccc2ccccc2c1)C(=O)N[C@@H](Cc1ccc2ccccc2c1)C(=O)N[C@@H](Cc1c[nH]c2ccccc12)C(=O)O [IFX-025-1, NH2-R-R-R-NaI-NaI-Trp-OH] (H-RRR[2Nal][2Nal]W-OH) | 375 | 25 µg/mL (≈ 23.4 µM) | 50 µg/mL (≈ 46.8 µM) | 12.5 µg/mL (≈ 11.7 µM) | 12.5 µg/mL (≈ 11.7 µM)
N=C(N)NCCC[C@@H]1NC(=O)[C@H](CCCNC(=N)N)NC(=O)[C@H](CCCNC(=N)N)NC(=O)[C@H](C(c2ccccc2)c2ccccc2)NC(=O)[C@H](C(c2ccccc2)c2ccccc2)NC(=O)[C@H](C(c2ccccc2)c2ccccc2)NC(=O)[C@H](C(c2ccccc2)c2ccccc2)NC(=O)[C@H](CCCNC(=N)N)NC1=O [IFX-005, c[Arg-Arg-Arg-Arg-Dip-Dip-Dip-Dip]] (cyclo([Dip][Dip][Dip][Dip]RRRR)) | 95 | 25 µg/mL (≈ 16.5 µM) | 25 µg/mL (≈ 16.5 µM) | 3.1 µg/mL (≈ 2.04 µM) | 6.2 µg/mL (≈ 4.08 µM)
N=C(N)NCCC[C@@H]1NC(=O)[C@@H](CCCNC(=N)N)NC(=O)[C@H](CCCNC(=N)N)NC(=O)[C@@H](Cc2c[nH]c3ccccc23)NC(=O)[C@H](Cc2c[nH]c3ccccc23)NC(=O)[C@@H](Cc2c[nH]c3ccccc23)NC(=O)[C@H](Cc2c[nH]c3ccccc23)NC(=O)[C@@H](CCCNC(=N)N)NC1=O [IFX-033, c[Arg-arg-Arg-arg-Trp-trp-Trp-trp]] (cyclo(R[dR]R[dR]W[dW]W[dW])) | 95 | 12.5 µg/mL (≈ 9.13 µM) | 25 µg/mL (≈ 18.3 µM) | 6.2 µg/mL (≈ 4.53 µM) | 6.2 µg/mL (≈ 4.53 µM)
NCCCC[C@@H]1NC(=O)[C@H](CCCCN)NC(=O)[C@H](CCCCN)NC(=O)[C@H](C(c2ccccc2)c2ccccc2)NC(=O)[C@H](C(c2ccccc2)c2ccccc2)NC(=O)[C@H](C(c2ccccc2)c2ccccc2)NC(=O)[C@H](CCCCN)NC1=O [IFX-014, c[Lys-Lys-Lys-Lys-Dip-Dip-Dip]] (cyclo([Dip][Dip][Dip]KKKK)) | 415 | >100 µg/mL | >100 µg/mL | 12.5 µg/mL (≈ 10.6 µM) | 12.5 µg/mL (≈ 10.6 µM)
N=C(N)NCCC[C@H](NC(=O)[C@H](CCCNC(=N)N)NC(=O)[C@@H](N)CCCNC(=N)N)C(=O)N[C@@H](CCCNC(=N)N)C(=O)N[C@H](C(=O)N[C@H](C(=O)N[C@H](C(=O)O)C(c1ccccc1)c1ccccc1)C(c1ccccc1)c1ccccc1)C(c1ccccc1)c1ccccc1 [IFX-008-1, NH2-Arg-Arg-Arg-Arg-Dip-Dip-Dip-OH] (H-RRRR[Dip][Dip][Dip]-OH) | 210 | 6.2 µg/mL (≈ 4.72 µM) | 6.2 µg/mL (≈ 4.72 µM) | 3.1 µg/mL (≈ 2.36 µM) | 3.1 µg/mL (≈ 2.36 µM)
N=C(N)NCCC[C@@H]1NC(=O)[C@H](CCCNC(=N)N)NC(=O)[C@H](CCCNC(=N)N)NC(=O)[C@H](Cc2ccc3ccccc3c2)NC(=O)[C@H](Cc2ccc3ccccc3c2)NC(=O)[C@H](Cc2ccc3ccccc3c2)NC(=O)[C@H](Cc2ccc3ccccc3c2)NC(=O)[C@H](CCCNC(=N)N)NC1=O [IFX-006, c[Arg-Arg-Arg-Arg-NaI-NaI-NaI-NaI]] (cyclo([2Nal][2Nal][2Nal][2Nal]RRRR)) | 120 | 25 µg/mL (≈ 17.7 µM) | 50 µg/mL (≈ 35.4 µM) | 3.1 µg/mL (≈ 2.19 µM) | 6.2 µg/mL (≈ 4.39 µM)
N=C(N)NCCC[C@@H]1NC(=O)[C@@H](CCCNC(=N)N)NC(=O)[C@H](CCCNC(=N)N)NC(=O)[C@@H](Cc2ccc3ccccc3c2)NC(=O)[C@@H](Cc2ccc3ccccc3c2)NC(=O)[C@H](Cc2c[nH]c3ccccc23)NC(=O)[C@H](CCN)NC(=O)[C@@H](CCCNC(=N)N)NC1=O [IFX-054, c[Arg-arg-Arg-arg-Dab-Trp-naI-naI]] (cyclo([Dab]W[d2Nal][d2Nal]R[dR]R[dR])) | 620 | 32 µg/mL (≈ 24.5 µM) | 64 µg/mL (≈ 49 µM) | 32 µg/mL (≈ 24.5 µM) | 64 µg/mL (≈ 49 µM)
N=C(N)NCCC[C@@H]1NC(=O)[C@H](CCCNC(=N)N)NC(=O)[C@H](CCCNC(=N)N)NC(=O)[C@H](Cc2ccc3ccccc3c2)NC(=O)[C@H](Cc2ccc3ccccc3c2)NC(=O)[C@H](Cc2c[nH]c3ccccc23)NC(=O)[C@H](CCCNC(=N)N)NC1=O [IFX-029, c[Arg-Arg-Arg-Arg-Trp-NaI-NaI]] (cyclo(RRRRW[2Nal][2Nal])) | 200 | – | – | – | –
N=C(N)NCCC[C@@H]1NC(=O)[C@H](CCCNC(=N)N)NC(=O)[C@H](Cc2ccc3ccccc3c2)NC(=O)[C@H](Cc2ccc3ccccc3c2)NC(=O)[C@H](Cc2c[nH]c3ccccc23)NC(=O)[C@H](CCCNC(=N)N)NC1=O [IFX-023, c[Arg-Arg-Arg-Trp-NaI-NaI]] (cyclo(RRRW[2Nal][2Nal])) | 175 | – | – | – | –
N=C(N)NCCC[C@@H]1NC(=O)[C@H](CCCNC(=N)N)NC(=O)[C@H](CCCNC(=N)N)NC(=O)[C@H](C(c2ccccc2)c2ccccc2)NC(=O)[C@H](Cc2c[nH]c3ccccc23)NC(=O)[C@H](C(c2ccccc2)c2ccccc2)NC(=O)[C@H](CCCNC(=N)N)NC1=O [IFX-027, c[Arg-Arg-Arg-Arg-Dip-Trp-Dip]] (cyclo(RRRR[Dip]W[Dip])) | 860 | – | – | – | –
N=C(N)NCCC[C@@H]1NC(=O)[C@H](CCCNC(=N)N)NC(=O)[C@H](CCCNC(=N)N)NC(=O)[C@H](C(c2ccccc2)c2ccccc2)NC(=O)[C@H](C(c2ccccc2)c2ccccc2)NC(=O)[C@H](Cc2c[nH]c3ccccc23)NC(=O)[C@H](CCCNC(=N)N)NC1=O [IFX-026, c[Arg-Arg-Arg-Arg-Trp-Dip-Dip]] (cyclo([Dip][Dip]RRRRW)) | 240 | – | – | – | –
N=C(N)NCCC[C@@H]1NC(=O)[C@H](CCCNC(=N)N)NC(=O)[C@H](Cc2c[nH]c3ccccc23)NC(=O)[C@H](Cc2ccc3ccccc3c2)NC(=O)[C@H](Cc2ccc3ccccc3c2)NC(=O)[C@H](CCCNC(=N)N)NC1=O [IFX-025, c[Arg-Arg-Arg-NaI-NaI-Trp]] (cyclo(RRR[2Nal][2Nal]W)) | 190 | – | – | – | –
N=C(N)NCCC[C@@H]1NC(=O)[C@H](CCCNC(=N)N)NC(=O)[C@H](Cc2ccc3ccccc3c2)NC(=O)[C@H](Cc2c[nH]c3ccccc23)NC(=O)[C@H](Cc2ccc3ccccc3c2)NC(=O)[C@H](CCCNC(=N)N)NC1=O [IFX-024, c[Arg-Arg-Arg-NaI-Trp-NaI]] (cyclo(RRR[2Nal]W[2Nal])) | 250 | – | – | – | –
